Columns and labels:
Format in all cases: biochemical
[1] = target: T1, BfFucH (Bacteroides fragilis, UniProt Q5LAD6); assay: block of AH062 probe labelling, blot chemiluminescence; conditions: 100 uM inhibitor preincubated, 350 uM AH062, PBS pH 7.4; competitive
T1 construct: gene BF9343_3156; codon-optimized gene in pET47b+, expressed in E. coli BL21(DE3), Ni-NTA and Superdex 200 purified; about 50 kDa
T1 sequence (Q5LAD6 21-434): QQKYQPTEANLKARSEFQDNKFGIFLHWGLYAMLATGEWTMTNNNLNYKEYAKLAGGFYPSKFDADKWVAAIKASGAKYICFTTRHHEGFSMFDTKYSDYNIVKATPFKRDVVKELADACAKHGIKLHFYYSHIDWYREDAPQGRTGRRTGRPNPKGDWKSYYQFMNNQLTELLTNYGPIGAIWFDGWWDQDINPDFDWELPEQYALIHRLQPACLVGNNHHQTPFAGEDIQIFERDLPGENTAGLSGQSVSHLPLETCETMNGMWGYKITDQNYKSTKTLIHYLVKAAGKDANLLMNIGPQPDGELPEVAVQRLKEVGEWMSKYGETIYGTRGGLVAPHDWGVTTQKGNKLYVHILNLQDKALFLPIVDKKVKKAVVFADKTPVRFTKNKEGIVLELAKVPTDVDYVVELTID

[2] = target: T2, TmFuc (Thermotoga maritima, UniProt Q9WYE2); assay: pepsin digest LC-MS/MS of probe adducts; conditions: covalent after turnover to quinone methide; adducts at W80 or W105, outside the active site
T2 construct: gene TM_0306; recombinant, commercial (Megazyme)
T2 sequence (Q9WYE2 1-449): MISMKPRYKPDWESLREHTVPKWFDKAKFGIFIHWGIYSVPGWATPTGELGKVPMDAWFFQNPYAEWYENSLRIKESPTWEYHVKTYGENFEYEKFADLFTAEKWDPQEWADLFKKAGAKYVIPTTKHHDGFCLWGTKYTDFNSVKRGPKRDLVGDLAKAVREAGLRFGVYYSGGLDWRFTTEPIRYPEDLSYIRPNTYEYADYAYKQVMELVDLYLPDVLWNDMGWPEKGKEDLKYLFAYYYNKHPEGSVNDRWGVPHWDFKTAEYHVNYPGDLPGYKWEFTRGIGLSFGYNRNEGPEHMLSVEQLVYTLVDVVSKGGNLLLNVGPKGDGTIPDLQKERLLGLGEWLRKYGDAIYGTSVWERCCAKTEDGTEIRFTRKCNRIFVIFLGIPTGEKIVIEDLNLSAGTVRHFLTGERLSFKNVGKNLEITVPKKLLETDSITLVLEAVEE

[3] = target: T3, AfcA (Bifidobacterium bifidum, UniProt Q6JV24); assay: probe labelling, click biotinylation, blot chemiluminescence; conditions: 350 uM probe, PBS pH 7.4, 37 C or room temperature (Figure 1); covalent after turnover to quinone methide
T3 construct: catalytic GH95 fragment, residues 577-1474, C-terminal GGSGGSHHHHHHHH tag; pMAL-c4x-1-H(RBS)+ in E. coli BL21(DE3), Ni-NTA and Superdex 200 purified
T3 sequence (Q6JV24 entry or part of it): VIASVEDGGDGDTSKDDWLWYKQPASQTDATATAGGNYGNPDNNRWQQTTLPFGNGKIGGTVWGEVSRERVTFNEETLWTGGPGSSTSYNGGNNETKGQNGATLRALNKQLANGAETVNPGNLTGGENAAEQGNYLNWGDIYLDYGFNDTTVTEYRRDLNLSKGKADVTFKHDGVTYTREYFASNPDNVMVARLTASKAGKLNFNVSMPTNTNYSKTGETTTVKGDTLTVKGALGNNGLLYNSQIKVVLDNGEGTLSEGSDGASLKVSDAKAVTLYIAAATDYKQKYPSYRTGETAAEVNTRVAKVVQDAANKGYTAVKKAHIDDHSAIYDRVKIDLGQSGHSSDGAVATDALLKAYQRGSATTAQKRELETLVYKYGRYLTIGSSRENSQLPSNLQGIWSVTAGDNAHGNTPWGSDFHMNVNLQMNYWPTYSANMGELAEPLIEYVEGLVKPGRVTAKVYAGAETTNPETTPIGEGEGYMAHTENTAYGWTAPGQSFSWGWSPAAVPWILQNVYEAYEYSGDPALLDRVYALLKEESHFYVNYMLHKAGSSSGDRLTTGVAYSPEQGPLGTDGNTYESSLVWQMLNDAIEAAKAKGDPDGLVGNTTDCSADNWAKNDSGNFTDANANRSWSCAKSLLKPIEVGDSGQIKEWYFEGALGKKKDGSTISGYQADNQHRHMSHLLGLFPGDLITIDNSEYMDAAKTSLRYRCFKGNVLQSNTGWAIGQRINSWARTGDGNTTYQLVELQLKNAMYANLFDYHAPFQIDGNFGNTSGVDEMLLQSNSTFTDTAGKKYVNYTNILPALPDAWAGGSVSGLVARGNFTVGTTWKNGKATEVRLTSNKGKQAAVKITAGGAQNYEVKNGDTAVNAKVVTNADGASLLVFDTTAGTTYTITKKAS

Row | SMILES | block of AH062 probe labelling, blot chemiluminescence [1] | pepsin digest LC-MS/MS of probe adducts [2] | probe labelling, click biotinylation, blot chemiluminescence [3]
1 | C[C@@H]1NC[C@@H](O)[C@H](O)[C@@H]1O [L-fuconojirimycin] | distinguishing the active from the inhibited enzyme (prepared by preincubation with the competitive inhibitor L-fuconojirimycin | – | –
2 | C[C@@H]1O[C@@H](Oc2ccc(NC(=O)CCOCCOCCOCCN=[N+]=[N-])cc2CF)[C@@H](O)[C@H](O)[C@@H]1O [compound 12, 3-(2-(2-(2-azidoethoxy)ethoxy)ethoxy)-N-(3-(fluoromethyl)-4-(((2S,3S,4R,5S,6S)-3,4,5-trihydroxy-6-methyltetrahydro-2H-pyran-2-yl)oxy)phenyl)propanamide] | – | the quinone methide generated from AH062 had labeled either tryptophan W80 or W105 | the probe detected the enzyme in a concentration-dependent manner

— publication PMC8911971, “Detection of Bacterial α-L-Fucosidases with an Ortho-Quinone Methide-Based Probe and Mapping of the Probe-Protein Adducts” (Molecules, 2022)
